# Data reported in publication PMC5360941, “Simultaneous Determination and Pharmacokinetic Study of Quercetin, Luteolin, and Apigenin in Rat Plasma after Oral Administration of Matricaria chamomilla L. Extract by HPLC-UV” (Evidence-based Complementary and Alternative Medicine : eCAM, 2017).
# Tests used:
# [1] = Pharmacokinetic study in rats after oral administration of M. chamomilla extract (HPLC-UV of plasma); assay type: in vivo, Male Sprague-Dawley rats; conditions: oral M. chamomilla extract (quercetin 8.51 mg/kg, luteolin 56.49 mg/kg, apigenin 13.82 mg/kg), mean ± SD; for AUC(0-inf) / AUC(0-t) / Cmax / Tmax / half-life: male, Sprague-Dawley, rat; for AUC(0-inf) / T1/2, elimination half-life: n = 6; for AUC(0-t): n = 6, read-out: AUC0–12; for Cmax: n = 6, read-out: Cmax, maximum plasma concentration; for Tmax: noncompartmental, n = 6, read-out: Tmax, time to reach the maximum plasma concentration; for half-life: po, n = 6, read-out: T1/2, elimination half-life (converted)
# Method: All analyses were performed on a Shimadzu HPLC system, equipped with LC-20AT pump, a Shimadzu SCL-10A system controller, and a SPD-20A DAD-UV detector. The HPLC analysis was performed on an Agilent Eclipse XDB-C18 column (250 mm × 4.6 mm, 5 μm) with a mobile phase consisting of methanol and 0.2% phosphoric acid (50 : 50, v/v) with a constant rate of 1.0 ml/min. The injection volume was 10 μl and the column temperature was set at 25°C. The wavelength was set at 350 nm for quantitative analysis; the proportion of components in the mobile phase was optimized to obtain a well separation of quercetin, luteolin, apigenin, and kaempferol (IS).
# An aliquot of 100 μL rat plasma was transferred to a 1.5 mL plastic tube to which was added 10 μL IS (22.52 μg/ml) for processing. After being vortex-mixed for 30 seconds, the plasma sample was then extracted with 800 μl of ethyl acetate and centrifuged at 18000g for 10 min, where ethyl acetate acted as a deproteinization-extraction agent. The procedure of extraction was performed two times. The organic layer was dried at 40°C under nitrogen stream. The residue was reconstituted in 100 μL of methanol solution, vortexed for 1 min, and centrifuged at 18000g for 10 min. The supernatant transferred to a glass insert, and 10 μL of the sample was injected into the HPLC column for analysis. The method of sample preparation was also applied for determination of accuracy, precision, and recovery.
# Male Sprague-Dawley rats (body weight 160 ± 20 g) were purchased from Beijing Vital River Laboratory Animal Technology (Beijing, China). Rats were housed in a temperature- and humidity-controlled environment (25°C, 65% RH) and maintained on a 12-hour light/dark cycle for 3 days with free access to food and water before starting the experiment. The animal experiments were performed in accordance with the principles of the International Guide for the Care and Use of Laboratory Animals and were approved by the Committee on Animal Care and Usage of the Beijing University of Chinese Medicine (number SYXK 2011-0024).
# The extracts of M. chamomilla (quercetin was 8.51 mg/kg, luteolin was 56.49 mg/kg, and apigenin was 13.82 mg/kg) freshly prepared in 0.5% CMC-Na solution were orally administered to six rats. Blood samples (0.5 mL) were collected from the ocular fundus veins of rats before administration and after 10, 20, 30, and 45 min and 1, 1.5, 2, 4, 6, 8, and 12 h after oral administration of M. chamomilla extract. The plasma was immediately centrifuged at 3200g for 10 min to separate out plasma and then stored frozen at −20°C until analysis.
# The pharmacokinetic parameters of quercetin, luteolin, and apigenin were calculated by Kinetica 4.4 software (Thermo Scientific, USA). Noncompartmental analysis was used to determine standard pharmacokinetic parameters of analytes. All the results were expressed as means ± standard deviation (SD) of six replicates.
# [2] = Stability of the analytes in rat plasma (QC samples under different storage conditions); assay type: in vitro ADME; conditions: for Stability in plasma (in words): plasma stored at 20°C for 24 h, −20°C for 30 days, and after three freeze-thaw cycles, low, medium, high concentrations, stable = 85–115% of initial; for Freeze-thaw stability, found conc. / Short-term stability, found conc. / Long-term stability, found conc.: rat plasma, n = 6; for Freeze-thaw stability, found conc.: 3 freeze-thaw cycles; for Short-term stability, found conc.: 24 h at room temperature; for Long-term stability, found conc.: 30 days at −20°C
# Method: QC samples were prepared in the same way as the calibration samples, representing three different level concentrations (low, medium, and high) of quercetin in plasma at 0.57, 2.84, and 9.09 μg/ml, luteolin at 0.56, 2.80, and 8.96 μg/ml, and apigenin at 0.53, 2.65, and 8.48 μg/ml, respectively. The stability of the analytes in plasma was investigated by determining QC plasma samples of the three concentration levels under different storage conditions: 24 h at room temperature, three freeze (−20°C) and thaw (room temperature) cycles, stored at −20°C for 30 days. They were considered stable when 85–115% of the initial concentrations were got. All stability testing QC samples were determined by using the calibration curve of freshly prepared standard samples.
# [3] = high QC (spiked 9.09 quercetin, 8.96 luteolin, 8.48 apigenin μg/ml)
# [4] = low QC (spiked 0.57 quercetin, 0.56 luteolin, 0.53 apigenin μg/ml)
# [5] = medium QC (spiked 2.84 quercetin, 2.80 luteolin, 2.65 apigenin μg/ml)
AUC(0-inf) [1],AUC(0-t) [1],Cmax [1],Tmax [1],half-life [1],"T1/2, elimination half-life [1]",Stability in plasma (in words) [2],"Freeze-thaw stability, found conc. [2, 3]","Freeze-thaw stability, found conc. [2, 4]","Freeze-thaw stability, found conc. [2, 5]","Short-term stability, found conc. [2, 3]","Short-term stability, found conc. [2, 4]","Short-term stability, found conc. [2, 5]","Long-term stability, found conc. [2, 3]","Long-term stability, found conc. [2, 4]","Long-term stability, found conc. [2, 5]",SMILES
5030 ± 1720 ng·h/mL,2910 ± 740 ng·h/mL,420 ± 110 ng/mL,~0.51 h,~8.82 h,8.82 ± 4.15 h,stable,7.87 ± 0.50 µg/mL,0.48 ± 0.02 µg/mL,2.60 ± 0.14 µg/mL,8.31 ± 0.72 µg/mL,0.50 ± 0.04 µg/mL,2.64 ± 0.16 µg/mL,8.27 ± 0.62 µg/mL,0.46 ± 0.04 µg/mL,2.61 ± 0.13 µg/mL,"O=c1cc(-c2ccc(O)cc2)oc2cc(O)cc(O)c12 [Apigenin, apigenin]"
19900 ± 5060 ng·h/mL,16000 ± 2380 ng·h/mL,3040 ± 600 ng/mL,~0.42 h,~4.43 h,4.43 ± 1.84 h,stable,8.56 ± 0.54 µg/mL,0.62 ± 0.02 µg/mL,2.91 ± 0.15 µg/mL,8.96 ± 0.76 µg/mL,0.62 ± 0.01 µg/mL,2.94 ± 0.14 µg/mL,8.99 ± 0.65 µg/mL,0.61 ± 0.03 µg/mL,2.92 ± 0.15 µg/mL,"O=c1cc(-c2ccc(O)c(O)c2)oc2cc(O)cc(O)c12 [Luteolin, luteolin]"
3880 ± 1000 ng·h/mL,1790 ± 290 ng·h/mL,290 ± 60 ng/mL,~0.79 h,~13.6 h,–,stable,9.24 ± 0.55 µg/mL,0.63 ± 0.01 µg/mL,3.09 ± 0.09 µg/mL,9.15 ± 0.69 µg/mL,0.63 ± 0.01 µg/mL,3.09 ± 0.18 µg/mL,9.59 ± 0.53 µg/mL,0.62 ± 0.03 µg/mL,3.10 ± 0.16 µg/mL,"O=c1c(O)c(-c2ccc(O)c(O)c2)oc2cc(O)cc(O)c12 [Quercetin, quercetin]"
